Results published in patent publication US7598032B2, “Thermostable DNA polymerases incorporating nucleoside triphosphates labeled with fluorescent dyes” (Roche Molecular Systems, priority 1997, dated 2009).

Biological target: F730Y Tma30 DNA polymerase (nucleotides 1-570 of Taq DNA polymerase with G46D fused to nucleotides 571-2679 of Tma DNA polymerase with D323A, E325A, F730Y)
Test: Limiting template primer extension competition assay (ddNTP incorporation), F730Y Tma30
Format: biochemical, Thermus aquaticus / Thermotoga maritima
Conditions: inhibition of DNA synthesis ([α-33P]dCMP incorporation); 20 μM each dNTP, M13 mp18/DG48, pH 8.3, 10 min; 2 units enzyme; read-out: Concentration of Zowie-ddCTP or ddCTP needed for 50% inhibition
Method: The ability of the enzymes of this invention to efficiently incorporate nucleotides labeled with fluorescein family dyes is measured by ddNTP incorporation assays. One such assay is a primer extension competition assay conducted under conditions of limiting template. In this assay, a primer DG48 (5′-[…]), (SEQ ID NO: 11), bound to M13 mp18 template (Innis et al., 1988, Proc. Natl. Acad. Sci. USA 85:9436) is extended in the presence of [α-^33P]dCTP and excess enzyme with various levels of a fluorescently labeled ddNTP, Zowie-ddCTP. Because the incorporation of a ddCTP residue terminates the extension reaction, the more readily a DNA polymerase incorporates a ddCTP into an extended primer, the less [α-^33P]dCTP can be incorporated. Thus, as the efficiency of fluorescently labeled ddCTP incorporation increases, the extent of inhibition of DNA synthesis is increased. The reactions were also performed with various levels of an unlabeled ddCTP. […]
The relative abilities of G46D F667Y Taq, G46D F667Y E681K Taq and F730Y Tma30 DNA polymerases to incorporate a fluorescein dye family-labeled ddCTP were compared by use of a limiting template, primer extension competition assay. […] In this competition assay, because the incorporation of a ddCTP terminates the extension reaction, the more readily the polymerase incorporates a ddCTP into an extended primer, the less [α-^33P]dCTP can be incorporated. […]

With `Nc1ccn([C@H]2CC[C@@H](COP(=O)(O)OP(=O)(O)OP(=O)(O)O)O2)c(=O)n1` [ddCTP] as the molecule, how does the IC50 read?
The IC50 was 57 nM.
